According to ChEMBL document CHEMBL1201862, “PubChem BioAssay data set” (2004):
Activity calls are given as the source filed them.

Tests used:
[1] = Luminescence Cell-Based Dose Response HTS to Identify Activators of Luciferase Translation or Activity in H4 […] Cells. [Related pubchem assays: 1829 (Project Summary), 1814 (Primary HTS)]; assay type: functional
[2] = biological target: Cyclin-dependent kinase 5/CDK5 activator 1 (Homo sapiens, UniProt Q00535); assay: CDK5/p35 kinase inhibitors, dose response, biochemical, cherry-picked samples, set 2 (AID 504545)
[3] = HepG2 cell cytotoxicity, dose response, cytotoxicity control for non-replicating M. tuberculosis project (AID 489018); assay type: functional; details: Mycobacterium tuberculosis
[4] = tested on: Streptococcus sp. 'group A'; assay: growth inhibition of control SK(-) GAS strain, dose response, counter-screen for streptokinase expression inhibitor project, luminescence, kanamycin, BacTiterGlo, confirmation (AID 1900); assay type: functional, organism-based
[5] = THP-1 cell cytotoxicity, dose response, cytotoxicity control for non-replicating M. tuberculosis project (AID 489025); assay type: functional
[6] = inhibitors of SNCA 5'UTR-driven translation, confirmation, luminescence, H4 neuroglioblastoma cells, dose confirmation (AID 2454); assay type: functional, cell-based;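 note: H4 neuroglioblastoma cells carrying an alpha-synuclein 5'UTR luciferase reporter; potency for inhibition of the luciferase signal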
[7] = biological target: T1, Heat shock factor protein 1 (Mus musculus, UniProt P38532); assay: HSF1 potentiators in luciferase reporter cells, confirmation, cell-based, NIH3T3, luminescence, dose retest (AID 435004); assay type: functional;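 note: stress induced by proteasome inhibitor MG132 added 30 min after compound; luciferase reporter driven by HSF1 response element in NIH3T3 cells; actives raise luminescence as potentiators of the MG132 stress response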
T1 sequence (P38532 whole entry): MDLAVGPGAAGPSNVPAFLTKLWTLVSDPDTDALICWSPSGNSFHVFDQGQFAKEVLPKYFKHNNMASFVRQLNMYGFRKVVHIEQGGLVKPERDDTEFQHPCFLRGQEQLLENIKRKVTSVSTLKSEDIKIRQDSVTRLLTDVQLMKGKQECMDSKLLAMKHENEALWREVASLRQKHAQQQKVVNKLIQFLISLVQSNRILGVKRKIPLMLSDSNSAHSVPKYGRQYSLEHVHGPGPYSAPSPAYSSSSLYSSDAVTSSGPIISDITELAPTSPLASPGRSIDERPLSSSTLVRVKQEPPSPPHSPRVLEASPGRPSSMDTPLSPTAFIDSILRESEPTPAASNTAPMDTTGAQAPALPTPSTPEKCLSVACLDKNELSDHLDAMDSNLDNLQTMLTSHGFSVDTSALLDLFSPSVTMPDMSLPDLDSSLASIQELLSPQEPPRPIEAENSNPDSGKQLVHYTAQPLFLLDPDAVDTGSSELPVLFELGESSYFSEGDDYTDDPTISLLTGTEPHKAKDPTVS

[8] = inhibitors of firefly luciferase expression or activity, dose response, H4 neuroglioma cells, luminescence (AID 1990); assay type: functional, cell-based
cells [9] = assay type: functional
[10] = cytotoxicity in HEK-293T cells, dose response, cytotoxicity control for TCR NF-kB inhibitor project, luminescence, T-cell screen hits (AID 489026); assay type: functional, cell-based;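 note: cells exposed to compound about 14 hours before the viability readout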
cells [11] = assay type: functional, cell-based
[12] = luciferase reporter signal reduction – luminescence, H4-C neuroglioblastoma cells, dose response (AID 2458); assay type: functional, cell-based;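 note: H4 neuroglioblastoma cells stably carrying a luciferase reporter gene fusion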
[13] = biological target: T2, DNA repair and recombination protein RAD54-like (Homo sapiens, UniProt Q92698); assay: inhibitors of human RAD54 branch migration, confirmation, biochemical, fluorescence, cherry-picked samples, dose series (AID 651657); assay type: functional
T2 sequence (Q92698 whole entry): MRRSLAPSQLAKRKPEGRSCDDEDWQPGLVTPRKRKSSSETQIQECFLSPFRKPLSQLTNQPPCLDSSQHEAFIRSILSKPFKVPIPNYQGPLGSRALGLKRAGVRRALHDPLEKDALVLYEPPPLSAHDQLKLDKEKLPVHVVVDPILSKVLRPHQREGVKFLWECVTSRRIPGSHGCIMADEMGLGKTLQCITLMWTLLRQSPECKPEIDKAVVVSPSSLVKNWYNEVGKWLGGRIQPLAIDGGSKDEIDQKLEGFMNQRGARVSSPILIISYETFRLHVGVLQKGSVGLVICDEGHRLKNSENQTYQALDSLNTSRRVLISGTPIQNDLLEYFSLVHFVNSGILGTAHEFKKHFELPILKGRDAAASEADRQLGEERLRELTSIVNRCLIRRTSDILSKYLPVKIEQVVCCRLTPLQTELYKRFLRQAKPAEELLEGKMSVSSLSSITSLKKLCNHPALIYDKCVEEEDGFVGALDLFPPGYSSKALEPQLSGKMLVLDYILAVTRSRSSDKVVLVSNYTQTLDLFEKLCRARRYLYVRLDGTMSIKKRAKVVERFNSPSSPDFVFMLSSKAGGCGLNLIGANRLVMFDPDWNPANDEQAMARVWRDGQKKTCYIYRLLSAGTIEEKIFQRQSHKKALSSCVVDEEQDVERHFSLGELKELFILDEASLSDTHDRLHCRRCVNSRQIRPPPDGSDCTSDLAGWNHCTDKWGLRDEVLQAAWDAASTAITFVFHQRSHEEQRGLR

[14] = Vero E6 cell cytotoxicity, dose response, cytotoxicity control for non-replicating M. tuberculosis project, secondary assay (AID 492998); assay type: functional, VeroE6; details: Vero C1008
Streptococcus = assay: Group A Streptococcus viability loss, dose response, counter-screen for streptokinase expression inhibitor project, luminescence, BacTiterGlo (AID 1915); assay type: functional, organism-based;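 note: potency for reduction of bacterial viability or growth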
[15] = inhibitors of SNCA 5'UTR-driven reporter translation, confirmation, H4 neuroglioma cells, luminescence (AID 1988); assay type: functional, cell-based
[16] = biological target: T3, Corticotropin-releasing factor receptor 2/Corticotropin-releasing factor-binding protein (Homo sapiens, UniProt P24387+Q13324); assay: Dose Response confirmation of uHTS hits for small molecule antagonists of the CRF-binding protein and CRF-R2 receptor complex.; assay type: functional; details: read-out: IC50_Mean
T3 sequence (Q13324 whole entry): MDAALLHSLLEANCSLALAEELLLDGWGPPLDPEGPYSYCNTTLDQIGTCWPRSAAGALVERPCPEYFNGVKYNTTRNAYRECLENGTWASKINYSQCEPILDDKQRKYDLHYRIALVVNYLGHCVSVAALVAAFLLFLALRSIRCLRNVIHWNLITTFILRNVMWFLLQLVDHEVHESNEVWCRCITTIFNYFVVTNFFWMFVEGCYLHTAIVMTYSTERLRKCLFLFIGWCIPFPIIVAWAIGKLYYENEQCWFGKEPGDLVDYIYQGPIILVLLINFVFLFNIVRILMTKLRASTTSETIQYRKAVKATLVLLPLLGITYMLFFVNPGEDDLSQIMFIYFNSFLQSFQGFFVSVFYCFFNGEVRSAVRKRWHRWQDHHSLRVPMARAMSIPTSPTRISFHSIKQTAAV
T3 sequence (P24387 whole entry): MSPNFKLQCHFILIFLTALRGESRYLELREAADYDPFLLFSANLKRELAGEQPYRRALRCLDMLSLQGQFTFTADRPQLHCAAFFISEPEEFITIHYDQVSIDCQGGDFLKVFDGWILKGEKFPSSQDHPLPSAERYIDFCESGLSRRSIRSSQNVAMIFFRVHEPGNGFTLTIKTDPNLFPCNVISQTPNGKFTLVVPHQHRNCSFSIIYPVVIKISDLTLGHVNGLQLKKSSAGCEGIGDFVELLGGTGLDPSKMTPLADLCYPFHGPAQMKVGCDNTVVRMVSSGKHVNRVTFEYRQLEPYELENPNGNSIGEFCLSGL

Streptokinase A = biological target: T4, Streptokinase A (Streptococcus pyogenes serotype M1, UniProt P10520); assay: S. pyogenes streptokinase expression inhibitors, potency, dose response, plasminogen activation absorbance, OD405 (AID 1914); assay type: functional, Streptococcus pyogenes M1 GAS;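 note: secreted streptokinase activity via plasminogen activation per viability signal from cell pellet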
T4 sequence (P10520 whole entry): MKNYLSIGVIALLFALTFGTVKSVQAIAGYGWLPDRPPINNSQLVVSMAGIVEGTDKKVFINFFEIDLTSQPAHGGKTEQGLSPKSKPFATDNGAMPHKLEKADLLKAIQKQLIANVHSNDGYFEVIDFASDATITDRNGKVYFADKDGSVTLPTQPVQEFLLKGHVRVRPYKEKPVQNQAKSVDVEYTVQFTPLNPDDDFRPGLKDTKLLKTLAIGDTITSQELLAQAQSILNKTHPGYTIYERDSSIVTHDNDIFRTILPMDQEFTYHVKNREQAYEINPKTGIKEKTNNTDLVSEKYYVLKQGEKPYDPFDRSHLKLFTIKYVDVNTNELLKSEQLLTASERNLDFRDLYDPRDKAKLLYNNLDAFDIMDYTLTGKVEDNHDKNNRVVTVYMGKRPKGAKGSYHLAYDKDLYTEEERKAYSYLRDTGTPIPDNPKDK

[17] = biological target: T5, Nucleotide-binding oligomerization domain-containing protein 1 (Homo sapiens, UniProt Q9Y239); assay: NOD1 signaling inhibitors, SAR follow-up, revised (AID 2333); assay type: functional
T5 sequence (Q9Y239 whole entry): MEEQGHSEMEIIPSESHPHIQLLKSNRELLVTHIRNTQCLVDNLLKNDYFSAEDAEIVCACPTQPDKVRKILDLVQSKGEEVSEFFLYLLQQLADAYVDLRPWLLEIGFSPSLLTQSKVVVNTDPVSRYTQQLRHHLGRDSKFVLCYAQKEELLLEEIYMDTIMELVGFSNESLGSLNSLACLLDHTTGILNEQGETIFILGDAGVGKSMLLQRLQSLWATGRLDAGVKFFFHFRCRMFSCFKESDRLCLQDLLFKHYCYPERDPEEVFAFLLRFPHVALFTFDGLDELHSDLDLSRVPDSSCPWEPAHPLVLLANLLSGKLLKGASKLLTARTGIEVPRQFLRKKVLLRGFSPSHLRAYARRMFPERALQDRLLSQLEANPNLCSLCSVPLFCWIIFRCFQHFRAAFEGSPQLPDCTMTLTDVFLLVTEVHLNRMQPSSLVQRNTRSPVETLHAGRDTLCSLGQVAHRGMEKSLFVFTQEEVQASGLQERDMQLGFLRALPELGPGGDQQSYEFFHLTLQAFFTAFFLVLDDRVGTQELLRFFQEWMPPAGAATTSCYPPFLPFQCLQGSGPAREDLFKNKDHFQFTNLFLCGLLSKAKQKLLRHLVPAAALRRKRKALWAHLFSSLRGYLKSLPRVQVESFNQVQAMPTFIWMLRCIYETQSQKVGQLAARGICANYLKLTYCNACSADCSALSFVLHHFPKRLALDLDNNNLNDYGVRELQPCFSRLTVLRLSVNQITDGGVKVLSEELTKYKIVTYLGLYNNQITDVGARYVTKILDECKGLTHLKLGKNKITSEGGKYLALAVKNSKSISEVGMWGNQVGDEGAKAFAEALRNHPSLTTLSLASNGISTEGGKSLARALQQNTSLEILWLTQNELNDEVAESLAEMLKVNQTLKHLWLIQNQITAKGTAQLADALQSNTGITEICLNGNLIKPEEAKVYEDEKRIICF

Tumor necrosis factor = Tumor necrosis factor (Homo sapiens, UniProt P01375); assay: TNFa-triggered NF-kB activation inhibitors, SAR follow-up, cell-based, revised (AID 2337); assay type: functional
[18] = biological target: T3, Corticotropin-releasing factor receptor 2/Corticotropin-releasing factor-binding protein; assay: activators of CRF receptor 2 with binding protein – uHTS hits, confirmation (AID 602473); assay type: functional; details: read-out: EC50_Mean
[19] = biological target: Nucleotide-binding oligomerization domain-containing protein 2 (Homo sapiens, UniProt Q9HC29); assay: PubChem AID 2334; assay type: functional
[20] = biological target: DNA dC->dU-editing enzyme APOBEC-3G (Homo sapiens, UniProt Q9HC16); assay: Dose Response confirmation of small molecule APOBEC3G DNA Deaminase Inhibitors via a fluorescence-based single-stranded DNA deaminase assay. [Related pubchem assays (depositor defined):AID493012, AID493028]; assay type: functional
[21] = biological target: Neuropeptides B/W receptor type 1 (Homo sapiens, UniProt P48145); assay: Fluorescence-based dose response cell-based high throughput screening assay to identify antagonists of the G-protein coupled receptor 7 (GPR7). [Related pubchem assays: 1952 (Screening assay (GPR7 antagonists).), 1880 (Summary AID.)]; assay type: functional
[22] = biological target: Melanin-concentrating hormone receptor 1 (Homo sapiens, UniProt Q99705); assay: Fluorescence-based counterscreen for antagonists of the G-protein coupled receptor 7 (GPR7): cell-based high throughput dose response assay to identify antagonists of the melanin-concentrating hormone receptor 1 (MCHR1).; assay type: functional
X-box-binding protein 1 = X-box-binding protein 1 (Homo sapiens, UniProt P17861); assay type: functional, Cricetulus griseus;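 note: confirmatory dose-response counter-screen serving a CHOP assay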
[23] = Luminescence Cell-Based Dose Retest to Confirm Inhibitors of Cancer Stem Cells. [Related pubchem assays (depositor defined):AID2717, AID2721]; assay type: functional; details: Homo sapiens

Sequence of Cyclin-dependent kinase 5/CDK5 activator 1 (Q00535 whole entry): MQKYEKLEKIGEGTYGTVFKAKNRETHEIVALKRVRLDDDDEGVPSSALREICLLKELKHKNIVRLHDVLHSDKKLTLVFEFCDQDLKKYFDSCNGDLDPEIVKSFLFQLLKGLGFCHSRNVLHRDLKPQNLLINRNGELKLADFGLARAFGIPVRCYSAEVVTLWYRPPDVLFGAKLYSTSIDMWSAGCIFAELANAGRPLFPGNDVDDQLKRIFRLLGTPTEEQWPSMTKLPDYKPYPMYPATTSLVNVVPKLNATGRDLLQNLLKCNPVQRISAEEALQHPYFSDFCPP
Sequence of Cyclin-dependent kinase 5/CDK5 activator 1 (Q15078 whole entry, further chain): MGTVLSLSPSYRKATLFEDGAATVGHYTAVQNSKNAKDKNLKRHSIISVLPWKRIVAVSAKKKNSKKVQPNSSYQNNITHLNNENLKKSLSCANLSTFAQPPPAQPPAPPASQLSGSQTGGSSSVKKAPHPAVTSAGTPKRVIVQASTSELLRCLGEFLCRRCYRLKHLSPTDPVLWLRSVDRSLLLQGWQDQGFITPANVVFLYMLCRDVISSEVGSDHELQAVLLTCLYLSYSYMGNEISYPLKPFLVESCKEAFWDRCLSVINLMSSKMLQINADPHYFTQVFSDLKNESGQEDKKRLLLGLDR
Sequence of DNA dC->dU-editing enzyme APOBEC-3G (Q9HC16 whole entry): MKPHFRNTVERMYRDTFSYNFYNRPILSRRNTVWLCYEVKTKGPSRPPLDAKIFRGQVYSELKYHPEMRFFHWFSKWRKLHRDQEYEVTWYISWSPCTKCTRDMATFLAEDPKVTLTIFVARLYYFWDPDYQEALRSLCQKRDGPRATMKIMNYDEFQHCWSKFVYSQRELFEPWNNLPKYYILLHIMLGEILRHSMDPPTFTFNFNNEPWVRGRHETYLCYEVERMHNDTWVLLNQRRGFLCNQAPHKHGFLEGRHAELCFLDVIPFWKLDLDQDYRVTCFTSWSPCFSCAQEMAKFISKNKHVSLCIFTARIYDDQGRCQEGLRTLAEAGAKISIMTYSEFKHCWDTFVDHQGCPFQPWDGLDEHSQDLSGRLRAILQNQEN
Sequence of X-box-binding protein 1 (P17861 whole entry): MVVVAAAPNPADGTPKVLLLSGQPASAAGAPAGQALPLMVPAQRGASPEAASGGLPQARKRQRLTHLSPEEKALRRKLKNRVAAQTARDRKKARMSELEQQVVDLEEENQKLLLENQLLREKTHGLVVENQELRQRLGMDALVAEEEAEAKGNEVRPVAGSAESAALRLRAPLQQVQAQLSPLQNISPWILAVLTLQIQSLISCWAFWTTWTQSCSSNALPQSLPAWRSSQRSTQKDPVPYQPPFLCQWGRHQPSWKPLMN
Sequence of Tumor necrosis factor (P01375 whole entry): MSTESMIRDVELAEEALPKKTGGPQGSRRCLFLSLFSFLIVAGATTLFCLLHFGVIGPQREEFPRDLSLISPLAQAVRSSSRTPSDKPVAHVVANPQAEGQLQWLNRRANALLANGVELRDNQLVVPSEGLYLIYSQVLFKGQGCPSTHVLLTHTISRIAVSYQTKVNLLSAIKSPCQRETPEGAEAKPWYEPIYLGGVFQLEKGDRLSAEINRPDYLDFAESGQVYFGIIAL
Sequence of Melanin-concentrating hormone receptor 1 (Q99705 whole entry): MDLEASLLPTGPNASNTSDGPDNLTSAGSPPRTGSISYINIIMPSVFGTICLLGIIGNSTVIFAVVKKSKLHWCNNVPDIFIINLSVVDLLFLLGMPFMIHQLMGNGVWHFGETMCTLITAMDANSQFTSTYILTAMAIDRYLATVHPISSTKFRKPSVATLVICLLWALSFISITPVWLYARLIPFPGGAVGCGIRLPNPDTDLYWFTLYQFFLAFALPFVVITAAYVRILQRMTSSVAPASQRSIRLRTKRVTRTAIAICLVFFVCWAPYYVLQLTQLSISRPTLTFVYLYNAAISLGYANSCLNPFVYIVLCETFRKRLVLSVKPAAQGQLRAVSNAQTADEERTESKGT
Sequence of Nucleotide-binding oligomerization domain-containing protein 2 (Q9HC29 whole entry, the tested form may be a part): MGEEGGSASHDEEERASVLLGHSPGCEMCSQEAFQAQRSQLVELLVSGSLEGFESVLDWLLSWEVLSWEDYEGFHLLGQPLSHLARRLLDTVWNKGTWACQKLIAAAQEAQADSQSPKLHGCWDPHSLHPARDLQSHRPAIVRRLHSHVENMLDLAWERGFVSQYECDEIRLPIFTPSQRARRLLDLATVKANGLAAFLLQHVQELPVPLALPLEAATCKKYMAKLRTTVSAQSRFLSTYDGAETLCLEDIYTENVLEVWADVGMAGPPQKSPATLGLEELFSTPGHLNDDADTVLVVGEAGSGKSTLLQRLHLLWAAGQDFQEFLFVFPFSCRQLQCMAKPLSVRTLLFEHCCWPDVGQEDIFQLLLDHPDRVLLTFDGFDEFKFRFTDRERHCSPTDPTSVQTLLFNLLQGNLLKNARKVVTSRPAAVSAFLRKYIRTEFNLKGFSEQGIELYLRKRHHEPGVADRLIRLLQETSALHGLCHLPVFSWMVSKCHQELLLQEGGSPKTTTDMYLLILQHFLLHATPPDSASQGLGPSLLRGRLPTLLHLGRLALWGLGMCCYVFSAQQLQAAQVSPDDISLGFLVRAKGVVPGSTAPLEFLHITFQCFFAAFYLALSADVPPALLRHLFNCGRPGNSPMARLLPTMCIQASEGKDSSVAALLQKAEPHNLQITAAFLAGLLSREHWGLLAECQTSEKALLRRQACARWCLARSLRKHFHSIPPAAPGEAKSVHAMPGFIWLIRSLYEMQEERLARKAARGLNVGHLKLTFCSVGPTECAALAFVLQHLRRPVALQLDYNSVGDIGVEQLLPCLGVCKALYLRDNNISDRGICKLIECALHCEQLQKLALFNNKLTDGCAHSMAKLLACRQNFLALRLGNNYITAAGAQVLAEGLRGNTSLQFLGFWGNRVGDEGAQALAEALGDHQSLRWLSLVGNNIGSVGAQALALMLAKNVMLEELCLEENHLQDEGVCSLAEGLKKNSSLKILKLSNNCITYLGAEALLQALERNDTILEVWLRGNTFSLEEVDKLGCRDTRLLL
Sequence of Neuropeptides B/W receptor type 1 (P48145 whole entry): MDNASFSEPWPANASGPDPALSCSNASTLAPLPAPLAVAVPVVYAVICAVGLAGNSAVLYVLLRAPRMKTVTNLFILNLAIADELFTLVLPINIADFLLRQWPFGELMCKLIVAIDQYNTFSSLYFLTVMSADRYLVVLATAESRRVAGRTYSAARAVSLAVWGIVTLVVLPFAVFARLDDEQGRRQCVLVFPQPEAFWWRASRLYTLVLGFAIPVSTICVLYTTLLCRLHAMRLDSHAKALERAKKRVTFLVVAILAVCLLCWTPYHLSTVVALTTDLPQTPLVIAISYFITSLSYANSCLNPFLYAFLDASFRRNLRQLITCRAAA

Compound: Nc1nc(Nc2ccccc2F)sc1C(=O)c1ccccc1
- EC50 [1]: 159 nM (active)
- AC50 [2]: 60 µM (active)

Compound: COC(=O)c1c(NC(=O)c2ccc([N+](=O)[O-])o2)sc2c1CCN(C(C)C)C2
- CC50 [3]: 6.72 µM (active)
- EC50 [4]: 4.11 µM (active)
- CC50 [5]: 1.5 µM (active)
- EC50 [6]: 1.52 µM (active)
- EC50 [7]: 26 µM (active)
- EC50 [8]: > 120 µM (not active)
- IC50 (cells [9]): 650 nM (active)
- IC50 [10]: > 80 µM (inactive)
- EC50 (cells [11]): 11.8 µM (active)
- EC50 [12]: 1.29 µM (active)
- AC50 [13]: 43.4 µM (active)
- CC50 [14]: 370 nM (active)
- EC50 (Streptococcus): 7.32 µM (active)
- EC50 [15]: < 100 nM (active)

Compound: Cc1ccc(SCc2cc(=O)[nH]c(SCC(=O)Nc3cc(Cl)ccc3Cl)n2)cc1
- IC50 [16]: 5.65 µM (active)
- EC50 (Streptokinase A): 42.6 µM (inconclusive)
- IC50 [17]: 7.37 µM (active)
- IC50 (Tumor necrosis factor): 8.65 µM (active)
- EC50 [18]: > 53 µM (inactive)
- IC50 [19]: 9.95 µM (active)

Compound: Cc1cccc(Nc2nc(N)c([N+](=O)[O-])c(NCCO)n2)c1
- AC50 [2]: 15.2 µM (active)

Compound: CC(=O)c1sc2nsc(SCCN3CCOCC3)c2c1N
- IC50 [20]: 34.4 µM (active)

Compound: O=C(NC1CCCCCCC1)C1c2ccccc2C(=O)N1Cc1cccs1 (stereo not drawn)
- IC50 [21]: > 43.8 µM (not active)
- IC50 [22]: 15.9 µM (not active)

Compound: Cc1[nH]c2ccccc2c1/C=N/NC(=O)C1CC1(c1ccccc1)c1ccccc1 (stereo not drawn)
- Absolute IC50 (XBP1) (X-box-binding protein 1): 10 µM
- AC50 [23]: 3.79 µM (active)
